This is an account of results in ChEMBL document CHEMBL5034027, “Synthesis and evaluation of stereoisomers of methylated catechin and epigallocatechin derivatives on modulating P-glycoprotein-mediated multidrug resistance in cancers” (Eur J Med Chem, 2021).

pEC50, pIC50: −log10 of the molar value. Some results are limits rather than exact numbers.

Series [1] can be described thus: Reversal of P-glycoprotein mediated drug resistance in human LCC6MDR cells assessed as reversal of paclitaxel resistance measured after 5 days by Cell Titer-Glo luminescence assay. The format is cell-based. The settings on record: 120 h. In general terms: In ATP-based viability assays light output follows the ATP content of the culture.
A further series relates to L929. Nature of the series: Cytotoxicity against mouse L929 cells assessed as reduction in cell viability incubated for 72 hrs by MTS assay. The format is cell-based. The settings on record: L929, 72 h. (Tetrazolium dyes change colour on reduction, which living cells bring about.)
The next series relates to P-gp. As to the kind of experiment: Selectivity index, ratio of IC50 for cytotoxicity against mouse L929 cells to EC50 for inhibition of P-gp in human LCC6MDR cells assessed as reversal of paclitaxel resistance. The format is toxicity, cell-based. To be noted: L929 cells (cytotoxicity IC50) and LCC6MDR cells (P-gp EC50), probe paclitaxel, read-out: Selectivity Index.
Series [2] addresses T1, ATP-dependent translocase ABCB1 (Homo sapiens, UniProt P08183). As to the kind of experiment: Inhibition of P-gp in human LCC6MDR cells assessed as intracellular DOX retention at 2 uM incubated for 60 mins by flow cytometry analysis relative to control. Further details: scale not given: the % may be the effect or the level left. The series is classed as cell-based. The settings on record: 1 h. A general note: A flow cytometer gives signals particle by particle.

Series [3] addresses T1, ATP-dependent translocase ABCB1. Nature of the series: Inhibition of P-gp in human LCC6MDR cells assessed as intracellular DOX retention at 2 uM incubated for 120 mins by flow cytometry analysis relative to control. The series is classed as cell-based. Further details: scale not given: the % may be the effect or the level left. The settings on record: 2 h.
The target is the same in series [4]. As to the kind of experiment: Inhibition of P-gp in human LCC6MDR cells assessed as intracellular DOX retention at 2 uM incubated for 90 mins by flow cytometry analysis relative to control. The series is classed as cell-based. Further details: scale not given: the % may be the effect or the level left.
A short description of series [5]: Reversal of P-glycoprotein mediated drug resistance in human LCC6MDR cells assessed as reversal of Dox resistance measured after 5 days by Cell Titer-Glo luminescence assay. To be noted: 120 h.

T1 sequence (P08183 whole entry): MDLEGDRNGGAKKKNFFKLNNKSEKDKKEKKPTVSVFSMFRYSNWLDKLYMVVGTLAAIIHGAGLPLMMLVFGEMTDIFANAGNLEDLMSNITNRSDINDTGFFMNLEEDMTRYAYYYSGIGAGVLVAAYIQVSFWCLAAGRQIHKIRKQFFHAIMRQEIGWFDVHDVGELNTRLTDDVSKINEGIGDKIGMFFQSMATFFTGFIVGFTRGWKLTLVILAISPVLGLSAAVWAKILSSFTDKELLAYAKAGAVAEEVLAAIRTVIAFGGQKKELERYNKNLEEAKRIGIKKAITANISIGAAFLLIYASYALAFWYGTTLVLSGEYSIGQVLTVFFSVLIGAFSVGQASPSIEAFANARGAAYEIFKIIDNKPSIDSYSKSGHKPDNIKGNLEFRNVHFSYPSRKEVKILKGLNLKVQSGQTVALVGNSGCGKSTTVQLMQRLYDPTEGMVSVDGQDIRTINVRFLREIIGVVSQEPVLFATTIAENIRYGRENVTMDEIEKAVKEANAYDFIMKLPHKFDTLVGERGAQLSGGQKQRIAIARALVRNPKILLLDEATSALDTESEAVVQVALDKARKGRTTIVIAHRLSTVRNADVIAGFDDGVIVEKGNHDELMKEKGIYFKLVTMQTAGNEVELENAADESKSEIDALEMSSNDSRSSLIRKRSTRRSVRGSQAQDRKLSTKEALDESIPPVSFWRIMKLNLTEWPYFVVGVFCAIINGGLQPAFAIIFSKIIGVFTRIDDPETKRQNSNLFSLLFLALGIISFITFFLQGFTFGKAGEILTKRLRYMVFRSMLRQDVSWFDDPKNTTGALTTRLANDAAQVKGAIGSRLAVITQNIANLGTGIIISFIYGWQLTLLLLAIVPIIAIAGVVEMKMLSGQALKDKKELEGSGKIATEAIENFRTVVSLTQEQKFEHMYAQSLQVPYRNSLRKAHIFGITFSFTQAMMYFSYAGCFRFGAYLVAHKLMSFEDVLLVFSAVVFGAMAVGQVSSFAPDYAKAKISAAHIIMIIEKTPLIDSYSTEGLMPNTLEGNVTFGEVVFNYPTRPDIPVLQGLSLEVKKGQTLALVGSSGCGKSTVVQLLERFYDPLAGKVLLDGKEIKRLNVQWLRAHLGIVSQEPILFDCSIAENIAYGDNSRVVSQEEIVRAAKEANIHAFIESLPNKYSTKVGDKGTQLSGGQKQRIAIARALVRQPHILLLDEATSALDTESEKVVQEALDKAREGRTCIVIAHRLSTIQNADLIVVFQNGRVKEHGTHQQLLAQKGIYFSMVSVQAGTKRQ

For orientation: pEC50 means the negative decadic logarithm of the EC50, by convention in mol/L. With `COc1cc(OC)c2c(c1)O[C@H](c1cc(OC)c(OC)c(OC)c1)[C@H](OC(=O)c1ccc(F)c(NC(=O)c3ccc(OC)c(OC)c3)c1)C2`, the pEC50 in series [1] was 6.80.
The same measure, in the same setting: as for `COc1cc(OC)c2c(c1)O[C@H](c1cc(OC)c(OC)c(OC)c1)[C@H](OC(=O)c1ccc(F)c(NC(=O)c3cc(OC)c(OC)c(OC)c3)c1)C2`, the figure is 6.67; as for `COc1cc(OC)c2c(c1)O[C@H](c1cc(OC)c(OC)c(OC)c1)[C@@H](OC(=O)c1ccc(F)c(NC(=O)c3ccc(OC)c(OC)c3)c1)C2`, 6.77; as for `COc1cc(OC)c2c(c1)O[C@H](c1cc(OC)c(OC)c(OC)c1)[C@@H](OC(=O)c1ccc(F)c(NC(=O)c3cc(OC)c(OC)c(OC)c3)c1)C2`, 6.85.
What is called pIC50 is the negative decadic logarithm of the IC50, by convention in mol/L. Turning to `COc1cc(OC)c2c(c1)O[C@H](c1ccc(OC)c(OC)c1)[C@@H](OC(=O)c1ccc(F)c(NC(=O)/C=C/c3cc(OC)c(OC)c(OC)c3)c1)C2`, the pIC50 with L929 is under 4.00. Further, the selectivity ratio in the series on P-gp was over 563. In addition, the pEC50 in series [1] is 6.75.
For the compound `COc1cc(OC)c2c(c1)O[C@H](c1ccc(OC)c(OC)c1)[C@@H](OC(=O)c1ccc(F)c(NC(=O)c3cc(OC)c(OC)c(OC)c3)c1)C2`, the Activity in series [2] came out at 87%; in series [3], 90%; in series [4], 89%.
Turning to `COc1cc(OC)c2c(c1)O[C@@H](c1cc(OC)c(OC)c(OC)c1)[C@H](OC(=O)c1ccc(F)c(NC(=O)c3cc(OC)c(OC)c(OC)c3)c1)C2`, the pIC50 in the series on L929 was under 4.00. The selectivity ratio in the series on P-gp was over 741. For the same compound, the pEC50 in series [1] is 6.87.
In the case of `COc1ccc(CCN(C)CCCC(C#N)(c2ccc(OC)c(OC)c2)C(C)C)cc1OC` (stereo not given), the pEC50 in series [5] is 6.59.
For the compound `O=C(O[C@@H]1Cc2c(O)cc(O)cc2O[C@@H]1c1cc(O)c(O)c(O)c1)c1cc(O)c(O)c(O)c1` [EPIGALOCATECHIN GALLATE], the pEC50 in series [1] is under 6.00.
